Data on two molecules can be found in paper PMC7064328 (Environmental Health Perspectives, 2020).

This data set relates to placenta. Put plainly: Placental thyroid hormone quantification (HPLC-MS/MS). Format: in vivo, mouse (CD-1). The conditions noted are these: E17.5. On the procedure: Thyroid hormones (T3, triiodothyronine; T4, thyroxine; rT3, reverse triiodothyronine) in placenta were analyzed according to the methods described in Leonetti et al. ([2016]). Briefly, ∼300mg ( 207–526mg ) of two to three pooled placental tissues of same-sex embryos was homogenized and digested for 16 h overnight in PRONASE® Protease (Streptomyces griseus) solution (EMD Millipore Corp.). Each pooled sample of two to three placentas was considered as one biological replicate and included placentas from the same litter when possible. Three biological replicates were used for each treatment group and each sex. Samples were spiked with an antioxidant solution (containing 37.5mg/mL each of citric acid, ascorbic acid, and dithiothreitol) and C13 isotopically labeled internal standards (T4, T3, and rT3), and cold acetone was added to stop the digestion reaction. Samples were vortex mixed and centrifuged three times for 2 min at 10,000 relative centrifugal force (rcf), and the supernatants were collected and combined. Sample pH was adjusted with 6M hydrochloric acid to pH<2 . A liquid–liquid extraction with cyclopentane was performed and the cyclopentane layer discarded; briefly, 1mL of cyclopentane was added to the supernatant and vortexed before the sample was centrifuged for 3 min at 3,000 rcf and the cyclopentane layer discarded, and this was repeated three times. A liquid–liquid extraction with ethyl acetate was performed; briefly, 3mL of ethyl acetate was added to the extract and vortexed before being shaken on a plate shaker for 30 min and centrifuged for 3 min at 3,000 rcf, and the ethyl acetate layer collected; this was repeated three times. Ethyl acetate extracts were dried down to 50μL under a gentle nitrogen stream and resuspended in 1mL of 0.01M hydrochloric acid in 10% methanol. Samples were purified by solid-phase extraction using SampliQ Optimized Polymer Technology (OPT) cartridges ( 3mL , 50mg; Agilent Technologies). Final extracts in 400μL of 1:1 methanol:water were filtered using Whatman® Mini-UniPrep® Syringeless Filters [Polytetrafluoroethylene (PTFE), 0.2μm; GE Healthcare]. Extracts were analyzed on an Agilent high-performance liquid chromatography (HPLC) 1260 with a Synergi™ 50mm×2mm Polar-RP column ( 2.5μm; Phenomenex) coupled to an Agilent model 6460 tandem mass spectrometer with electrospray ionization (HPLC-MS/MS-ESI). Mobile phases consisted of 10 mM formic acid in methanol and 10 mM formic acid in water. Laboratory processing blanks were extracted alongside the placental tissues to monitor background levels. No TH were detected in the lab blanks. Method detection limits (MDLs) were calculated using a signal-to-noise value of 3 for each analyte (T3, T4, and rT3). Values were normalized to the wet weight of placenta extracted for a final value of nanogram hormone/gram placenta. Values below the MDL (T4, 0.84 ng/g; T3, 0.42 ng/g; rT3, 0.67 ng/g ) were imputed using the calculation MDL×0.5 , and values lacking a quantifiable peak on mass spectrometry were excluded from the analysis.
TH concentrations in the placenta were quantified, and the ratios of T3:T4 and rT3:T4 in E17.5 placentas were assessed to evaluate potential disruption of peripheral TH control (e.g., impacts on thyroid deiodinase activity). Each end point was analyzed for sex×treatment interaction or for an overall effect of sex. Placenta TH were analyzed by analysis of variance using lme4 ([Bates et al. 2014]). Simultaneous tests for general linear hypotheses were corrected for multiple comparisons of means using Tukey contrasts in the package multcomp ([Hothorn et al. 2009]). Placental TH and their ratios were initially analyzed with embryo sex as an interaction term in the model, with the dose group as the predictor variable. Inclusion of a sex interaction or sex covariate in the final model was examined in a stepwise fashion. Internal dosimetry data were analyzed by analysis of variance. […]

Molecules are shown by their SMILES.

Take `N.O=C(O)C(F)(OC(F)(F)C(F)(F)C(F)(F)F)C(F)(F)F` (centres unmarked) [GenX, ammonium 2,3,3,3-tetrafluoro-2-(heptafluoropropoxy)propanoate]: the “Placental T3” value is 0.3±0.2 [5 (0, 5)] ng/g (2 mg/kg/d); 0.2±0 [6 (0, 6)] ng/g (10 mg/kg/d); 0.3 ± 0.2 ng/g (female, 2 mg/kg/d); 0.2 ± 0 ng/g (female, 10 mg/kg/d); 0.2 ± 0 ng/g (male, 2 mg/kg/d); 0.2 ± 0 ng/g (male, 10 mg/kg/d). For the same molecule, the “Placental T4” value runs as follows: (2 mg/kg/d) 5.3±1.7 [6 (6, 0)] ng/g; (10 mg/kg/d) 6.1±1.1 [6 (6, 0)] ng/g; (female, 2 mg/kg/d) 5.9 ± 2.3 ng/g; (female, 10 mg/kg/d) 6.5 ± 1.4 ng/g; (male, 2 mg/kg/d) 4.7 ± 1.1 ng/g; (male, 10 mg/kg/d) 5.8 ± 0.7 ng/g. Besides, the “Placental rT3” value is 1.7±0.8 [6 (6, 0)] ng/g (2 mg/kg/d); 1.6±0.3 [6 (6, 0)] ng/g (10 mg/kg/d); 2.3 ± 0.6 ng/g (female, 2 mg/kg/d); 1.9 ± 0.1 ng/g (female, 10 mg/kg/d); 1.0 ± 0.2 ng/g (male, 2 mg/kg/d); 1.3 ± 0.3 ng/g (male, 10 mg/kg/d).

For `O=C(O)C(F)(F)C(F)(F)C(F)(F)C(F)(F)C(F)(F)C(F)(F)C(F)(F)F` [PFOA, Perfluorooctanoic acid], the “Placental T3” value runs as follows: (1 mg/kg/d) 0.2±0 [6 (0, 6)] ng/g; (5 mg/kg/d) 0.2±0 [4 (0, 4)] ng/g; (female, 1 mg/kg/d) 0.2 ± 0 ng/g; (female, 5 mg/kg/d) 0.2 ± 0 ng/g; (male, 1 mg/kg/d) 0.2 ± 0 ng/g; (male, 5 mg/kg/d) 0.2 ng/g. Also, the “Placental T3:T4 ratio” value (1 mg/kg/d) was 0.09±0.03 [6]; the “Placental T3:T4 ratio” value (5 mg/kg/d) was 0.07±0.02 [4]; the “Placental T3:T4 ratio” value (female, 1 mg/kg/d) amounted to 0.104 ± 0.02; the “Placental T3:T4 ratio” value (female, 5 mg/kg/d) was 0.065 ± 0.02; the “Placental T3:T4 ratio” value (male, 1 mg/kg/d) turned out to be 0.071 ± 0.02; the “Placental T3:T4 ratio” value (male, 5 mg/kg/d) worked out at 0.083. Further, the “Placental T4” value (1 mg/kg/d) is 2.5±1.0 [6 (6, 0)] ng/g; the “Placental T4” value (5 mg/kg/d) is 2.8±1.3 [6 (6, 0)] ng/g; the “Placental T4” value (female, 1 mg/kg/d) is 2.0 ± 0.4 ng/g. Moreover, the “Placental rT3” value is, setting by setting: (1 mg/kg/d) 0.7±0.4 [6 (3, 3)] ng/g; (5 mg/kg/d) 1.4±0.7 [5 (5, 0)] ng/g; (female, 5 mg/kg/d) 1.6 ± 1.0 ng/g; (male, 1 mg/kg/d) 0.5 ± 0.4 ng/g; (male, 5 mg/kg/d) 1.2 ± 0.1 ng/g. Besides, the “Placental rT3:T4 ratio” value is 0.30±0.21 [6] (1 mg/kg/d); 0.45±0.05 [5] (5 mg/kg/d); 0.401 ± 0.22 (female, 1 mg/kg/d); 0.441 ± 0.05 (female, 5 mg/kg/d); 0.196 ± 0.17 (male, 1 mg/kg/d); 0.454 ± 0.07 (male, 5 mg/kg/d).
